Assay results from patent US20100204340A1 (priority 2009, published 2010).
In brackets after ≈: the same amount, converted by molar mass. Where two headings read alike, the source gives them in different places.

Key:
[1] = test system: 3T3-L1 mouse adipocyte cells; assay: Adipogenesis inhibitory assay (Oil Red-O staining); format: cell-based; conditions: for IC50: Mus musculus, 3T3-L1, Oil Red-O, OD 492 nm, read-out: IC50, inhibition of adipogenesis; for Adipogenesis inhibitory potential relative to Resveratrol: times more effective / superior than resveratrol
Method: A common assay to measure adipocyte differentiation in cell culture is with the dye Oil Red-O, which is a lipid-soluble red dye. Since terminal differentiation of adipocytes is accompanied by the accumulation of great amounts of lipids in large cytoplasmic vesicles, a strong, bright, staining of the cytoplasm with this dye is a reliable indicator of adipocyte differentiation.
3T3-L1 mouse adipocyte cells are seeded at a density of 5000 cell/200 μl of adipocyte induction medium in a 96 well plate. After 48 hrs varying concentrations of the sample are added. After 72 hrs, the medium is changed to adipocyte progression medium along with the sample. The medium is similarly changed after another 48 hours. The plates are washed gently after 48 hrs with 100 μl of PBS. 100 μl of 10% formalin is used to fix the cells for 30 min keeping at RT. The cells are then washed twice with 60% isopropanol gently. 100 μl of clear Oil red O stain is added to the wells & kept for staining for 1 hr. The cells are then washed with 70% Ethanol twice, once with PBS and air dried. Then 100 μl of 4% triton×100 in isopropanol is added to all the wells covered tightly & kept it in a shaker for 20 min at […]. The OD reading is taken at 492 nm in microplate reader.
The results are expressed as IC50 values using Graphpad prism software. The percentage of inhibition of adipogenesis is calculated as follows,
Where C-absorbance due to adipogenesis in untreated cells T-absorbance due to adipogenesis in sample treated cells
Note: IC50 is the concentration required for 50% inhibition of adipogenesis. Lower IC50 indicates better efficacy.

[2] = test system: Propionibacterium acnes ATCC 11827; assay: Broth dilution method, inhibitory concentration (IC50, IC100); format: cell-based; conditions: for inhibition at 16.6 µg/mL / inhibition at 41.6 µg/mL / inhibition at 83.3 µg/mL / inhibition at 166 µg/mL / inhibition at 332 µg/mL / IC50 / inhibition at 498 µg/mL: Cutibacterium acnes, ATCC11827
Description: Method: Broth dilution method to evaluate the inhibitory concentration (IC).
Materials • 1. Propionibacterium acnes ATCC: 11827 • 2. Physiological saline or Buffered peptone water (BPW). • 3. Reinforced clostridium medium (RCM) Hi-media • 4. Actinomyces broth (AC broth) Hi-media • 5. Anaerobic chamber. • 6. Gassing manifold Nitrogen, mixed gases. • 7. Spectrophotometer (600 nm to 625 nm). • 8. Sterile tubes • 9. Micro Pipette • 10. Sterile micro tips. • 11. (DMSO) dimethylsulphoxide
The strain Propionibacterium acnes (ATCC 11827) was obtained from ATCC. The inhibitory concentration (IC) of the given sample was determined by broth dilution method according to NCCLS guidelines. The IC50 was defined as that concentration of compound that reduced bacterial growth by 50% as determined spectrophotometrically. IC100 was defined as the lowest concentration of compound that inhibited bacterial growth by 100%. Resveratrol and 3-Hydroxypsterostilbene are water insoluble. Therefore samples were dissolved in DMSO and than added to Actinomyces broth to a final concentration of 0-500 mg/L. Twenty-four hour cultures of P.acnes were adjusted to 1×10^8 cfu/ml using McFarland standards and inoculated to Actinomycetes broth containing a specific concentration of compound. Controls containing just DMSO were also included in the test. Cultures were incubated anaerobically at 37° C. and read spectrophotometrically at 600 nm both at 24 h and 48 h incubation periods. IC50 and IC100 values were calculated from these observations.

[3] = Pharmacokinetics in serum and urine upon oral administration; format: in vivo, rats; conditions: rat, in vivo, po, 100 mg/kg
Method: The compound in its free and conjugated form is freely absorbed into systemic circulation with the glucoronide detected up to 72 hours.
(FIG. 4). The compound in its free and conjugated form appears in systemic circulation within 15 minutes of administration.

[4] = test system: B16F1 mouse melanoma cell line; assay: Melanin inhibitory assay; format: cell-based; conditions: B16-F1
tyrosinase = assay: Anti tyrosinase activity; format: biochemical
[5] = Oxygen Radical Absorbance Capacity (ORAC)
collagenase = assay: Anti collagenase assay; format: biochemical
Elastase = assay: Anti Elastase assay; format: biochemical
α-glucosidase = assay: Anti α-glucosidase activity; format: biochemical
in vivo = conditions: both sexes, Sprague Dawley, rat, po
Method: (§1) Repeated dose 90 day Oral toxicity study for 3HPT in Sprague Dawley rats: The study was conducted to evaluate the possible health hazards likely to arise from repeated exposure to 3HPT over a relatively limited period of time. The study was conducted in six groups consisting of 120 rats with 60 males and 60 females. Group-I, I (R), II, III, IV and IV (R) served as Control, Control Recovery, Low dose (20 mg/kg Bwt), Mid dose (80 mg/kg Bwt), High dose (200 mg/kg Bwt) and High dose Recovery (200 mg/kg Bwt) groups respectively. The test item or vehicle was administered through oral route by gavage to animals daily for 90 days. The animals of Control group and Control recovery group were administered with Corn oil. The vehicle and test item administration to Control Recovery and High dose Recovery group animals respectively was stopped after 90 days of administration and observed for another 28 days to evaluate the effects during recovery period. […] Body weights and food consumptions were recorded at weekly intervals. On completion of 90 days for treatment groups or 118 days for recovery groups respectively, the blood samples were collected from all the animals and subjected to haematological and clinical chemistry evaluation. At termination the animals were humanely sacrificed and subjected to necropsy examination. […]

Sprague Dawley rats = assay: in vivo; conditions: rat, po
Method: as §1

[6] = 16.6 mg/L, 24 h, IC n = n % inhibition of bacterial growth
[7] = 16.6 mg/L, 48 h, IC n = n % inhibition of growth
[8] = 41.6 mg/L, 24 h, IC n = n % inhibition of growth
[9] = 41.6 mg/L, 48 h, IC n = n % inhibition of growth
[10] = 83.3 mg/L, 24 h, IC n = n % inhibition of growth
[11] = 83.3 mg/L, 48 h, IC n = n % inhibition of growth
[12] = 166 mg/L, 24 h, IC n = n % inhibition of growth
[13] = 166 mg/L, 48 h, IC n = n % inhibition of growth
[14] = 332 mg/L, 24 h, IC n = n % inhibition of growth
[15] = 332 mg/L, 48 h, IC n = n % inhibition of growth
[16] = P. acnes ATCC 11827, 24 h, read-out: IC50 24 h
[17] = P. acnes ATCC 11827, 48 h, read-out: IC50 48 h

SMILES	IC50 [1]	OD @ 600 nm 24 h ([2]; 16.6 mg/L, 24 h, dilution 1:2)	OD @ 600 nm 48 h ([2]; 16.6 mg/L, 48 h, dilution 1:2)	OD @ 600 nm 24 h ([2]; 41.6 mg/L, 24 h, dilution 1:2)	OD @ 600 nm 48 h ([2]; 41.6 mg/L, 48 h, dilution 1:2)	Concentration showing 100% inhibition of Propionibacterium acnes ([2]; 24 hours of incubation)	Concentration showing 100% inhibition of Propionibacterium acnes ([2]; 48 hours of incubation)	inhibition at 41.6 µg/mL [2, 8]	inhibition at 41.6 µg/mL [2, 9]	inhibition at 83.3 µg/mL [2, 10]	inhibition at 83.3 µg/mL [2, 11]	inhibition at 166 µg/mL [2, 12]	inhibition at 166 µg/mL [2, 13]	inhibition at 332 µg/mL [2, 14]	inhibition at 332 µg/mL [2, 15]	IC50 [2, 16]	IC50 [2, 17]	IC100 24 h ([2]; P. acnes ATCC 11827, 24 h)	IC100 48 h ([2]; P. acnes ATCC 11827, 48 h)	other results
COc1cc(/C=C/c2ccc(O)c(O)c2)cc(OC)c1 [3-hydroxypterostilbene]	0.00483 µM	0.526	0.443	0.352	0.338	83.3 mg/mL	83 mg/mL	62%	62%	98%	98%	100%	100%	100%	100%	33.5 mg/L (≈ 123 µM)	35.8 mg/L (≈ 131 µM)	83.3 mg/L	83.0 mg/L	Adipogenesis inhibitory potential relative to Resveratrol [1]: about 5000 times; Adipogenesis inhibitory potential relative to Resveratrol ([1]; listed as 3,5-dimethoxy-3,4′-dihydroxystilbene): 5000 times; OD @ 600 nm 24 h ([2]; 83.3 mg/L, 24 h, dilution As such): 0.047; OD @ 600 nm 48 h ([2]; 83.3 mg/L, 48 h, dilution As such): 0.073; inhibition at 16.6 µg/mL [2, 6]: 45%; inhibition at 16.6 µg/mL [2, 7]: 45%; Oral bioavailability (free form and glucoronide) [3]: orally bioavailable; Time to appearance in systemic circulation (free and conjugated form) [3]: ≤ 15 min; Urinary excretion form [3]: excreted predominantly as glucoronides in the urine; IC50 [4]: 0.7 mg/L (≈ 2.57 µM); IC50, anti tyrosinase activity (tyrosinase): IC50 is 2 μg/ml; Oxygen Radical Absorbance Capacity (ORAC) [5]: 13334 ± 323 μmol TE/100 g; IC50, anti collagenase (collagenase): IC50 is 90 μg/ml; IC50, anti Elastase (Elastase): IC50 is 82 μg/ml; IC50, anti α-glucosidase (α-glucosidase): IC50 is 203.7 μg/ml; NOAEL at 90 days (in vivo): 200 mg/kg; Necropsy and histopathology examination of tissues and organs (Sprague Dawley rats): did not reveal any pathological changes
Oc1ccc(/C=C/c2cc(O)cc(O)c2)cc1 [Resveratrol, 3,4′,5-trihydroxy-trans-stilbene]	25 µM	1.027	0.884	0.777	0.593	332 mg/mL	498 mg/mL	17%	27%	55%	30%	75%	68%	100%	85%	83 mg/L (≈ 364 µM)	120 mg/L (≈ 526 µM)	332.0 mg/L	498 mg/L	(IC) Inhibitory concentration [2, 6]: No inhibition; (IC) Inhibitory concentration [2, 7]: No inhibition; OD @ 600 nm 24 h ([2]; 83.3 mg/L, 24 h, dilution 1:2): 0.423; OD @ 600 nm 48 h ([2]; 83.3 mg/L, 48 h, dilution 1:2): 0.573; OD @ 600 nm 24 h ([2]; 166 mg/L, 24 h, dilution 1:2): 0.232; OD @ 600 nm 48 h ([2]; 166 mg/L, 48 h, dilution 1:2): 0.268; OD @ 600 nm 24 h ([2]; 332 mg/L, 24 h, dilution As such): 0.00; OD @ 600 nm 48 h ([2]; 332 mg/L, 48 h, dilution As such): 0.11; OD @ 600 nm 48 h ([2]; 498 mg/L, 48 h, dilution As such): 0.00; inhibition at 498 µg/mL ([2]; 498 mg/L, 24 h, IC n = n % inhibition of growth): 100%; inhibition at 498 µg/mL ([2]; 498 mg/L, 48 h, IC n = n % inhibition of growth): 100%
